Assay results as given in patent US20240287080A1 (IDEAYA Biosciences Inc., priority 2021, published 2024).

Each compound was assayed against T1, Pol theta (1-899) (Homo sapiens, UniProt O75417) (assay: Pol theta ATPase activity, NADH oxidation-coupled enzymatic assay (ATPase NADH coupling: Standard Screening: hPolQ)). Conditions: Pol theta (1-899) 5 nM, NADH oxidation-coupled ATPase assay; compounds of Table 3.
T1 construct: Pol theta (1-899) (5 nM) in assay buffer
Assay type: biochemical
Method: The ability of the compounds of Formula (I) or Table 1 to inhibit ATPase activity of Pol theta (1-899) was determined using the assay described below. Pol Theta ATPase activity was determined by measuring the rate of ATP turn over in a NADH oxidation-coupled enzymatic assay. 10-point dilution series of compounds were used in a 384 well format for the inhibition assays. Pol theta (1-899) (5 nM) in assay buffer (20 mM Tris HCl (pH 7.80), 80 mM KCl, 10 mM MgCl2, 1 mM DTT, 0.01% BSA, 0.01% Tween, 5% glycerol) was transferred to the test wells (20 μL), except the low control wells (20 μL of assay buffer was added to the low control wells). The plate was then incubated at room temperature for 15 min. An equal volume (20 μL) of 100 μM ATP, 300 nM […] (single-stranded DNA (ssDNA) containing 50 thymine bases), 300 μM NADH, 6 mM PEP, 10 U/mL lactate dehydrogenase and 20 U/mL pyruvate kinase in assay buffer was added to all the test wells. The plate was then centrifuged at 1000 rpm for 1 min. The reaction was monitored for 60 min by measuring absorbance (λ=340 nm) in a Tecan Spark multimode plate reader every minute. The high control (DMSO with enzyme) with low absorbance intensity represents no inhibition of ATPase reaction while the low control (DMSO with buffer) with high absorbance intensity represents full inhibition of ATPase activity. Slope of the reaction progress curves were used to calculate the rate of ATP hydrolysis. The rates were used to determine the percent inhibition using a four-parameter inhibition model to generate IC50, Hill slope and max inhibition.

T1 sequence (O75417 1-899): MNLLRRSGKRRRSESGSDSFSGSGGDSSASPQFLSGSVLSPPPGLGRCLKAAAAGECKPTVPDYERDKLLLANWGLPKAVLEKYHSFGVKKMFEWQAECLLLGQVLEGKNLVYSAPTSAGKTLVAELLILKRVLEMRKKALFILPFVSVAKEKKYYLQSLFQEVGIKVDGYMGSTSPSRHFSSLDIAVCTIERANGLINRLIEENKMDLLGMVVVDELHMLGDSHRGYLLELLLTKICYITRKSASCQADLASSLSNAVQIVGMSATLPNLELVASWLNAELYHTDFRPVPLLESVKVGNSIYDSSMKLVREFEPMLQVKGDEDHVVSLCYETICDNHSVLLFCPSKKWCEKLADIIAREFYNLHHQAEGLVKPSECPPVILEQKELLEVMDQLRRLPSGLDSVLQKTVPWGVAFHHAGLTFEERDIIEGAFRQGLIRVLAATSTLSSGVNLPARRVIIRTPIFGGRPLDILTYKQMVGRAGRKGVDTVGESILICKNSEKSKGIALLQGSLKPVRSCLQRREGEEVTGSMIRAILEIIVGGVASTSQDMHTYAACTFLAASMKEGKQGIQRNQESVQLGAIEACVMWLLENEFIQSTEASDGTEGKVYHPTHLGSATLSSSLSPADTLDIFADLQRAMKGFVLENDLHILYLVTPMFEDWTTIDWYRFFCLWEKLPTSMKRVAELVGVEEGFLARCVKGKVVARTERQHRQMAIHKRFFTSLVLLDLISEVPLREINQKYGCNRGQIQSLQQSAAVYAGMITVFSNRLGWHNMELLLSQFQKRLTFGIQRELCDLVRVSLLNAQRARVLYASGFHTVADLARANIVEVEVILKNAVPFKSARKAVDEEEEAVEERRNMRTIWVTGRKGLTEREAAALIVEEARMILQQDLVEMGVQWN

IC50 [nM]	Structure (SMILES)
1000 to 10000	COc1nnc(NC(=O)c2cnc(C)cc2-c2ccc(C#N)nc2)s1 [Example 437, 6-cyano-N-(5-methoxy-1,3,4-thiadiazol-2-yl)-6′-methyl-[3,4′-bipyridine]-3′-carboxamide]
1000 to 10000	COc1nnc(NC(=O)c2cnc(C)cc2-c2ccc(CN(C)C)nc2)s1 [Example 474, 6-((dimethylamino)methyl)-N-(5-methoxy-1,3,4-thiadiazol-2-yl)-6′-methyl-[3,4′-bipyridine]-3′-carboxamide]
≤ 200	COc1nnc(NC(=O)c2cc(F)c(C)cc2-c2cc(Cl)ncc2OC)s1 [Example 282, 2-(2-chloro-5-methoxypyridin-4-yl)-5-fluoro-N-(5-methoxy-1,3,4-thiadiazol-2-yl)-4-methyl benzamide]
1000 to 10000	COc1nnc(NC(=O)c2cnc(C)cc2-c2cn(C)c3ccccc23)s1 [Example 464, N-(5-methoxy-1,3,4-thiadiazol-2-yl)-6-methyl-4-(1-methyl-1H-indol-3-yl)pyridine-3-carboxamide]
≤ 200	COc1nnc(NC(=O)c2ccc(C)cc2-c2cc(Cl)ncc2OC)s1 [Example 279, 2-(2-chloro-5-methoxypyridin-4-yl)-N-(5-methoxy-1,3,4-thiadiazol-2-yl)-4-methylbenzamide]
1000 to 10000	COc1nnc(NC(=O)c2cnc(C)cc2-c2cnn(Cc3ccccc3)c2)s1 [Example 468, 4-(1-benzyl-1H-pyrazol-4-yl)-N-(5-methoxy-1,3,4-thiadiazol-2-yl)-6-methylnicotinamide]
1000 to 10000	COc1nnc(NC(=O)c2cnc(C)cc2-c2cc(Cl)c([S@+]([O-])C3CC3)cc2OC)s1 (single isomer, unassigned) [Example 321]
1000 to 10000	COc1nnc(NC(=O)c2cnc(C)cc2-c2ccc(C(=O)N(C)C)cc2)s1 [Example 369, 4-[4-(dimethylcarbamoyl)phenyl]-N-(5-methoxy-1,3,4-thiadiazol-2-yl)-6-methylpyridine-3-carboxamide]
1000 to 10000	CNS(=O)(=O)c1cccc(-c2cc(C)ncc2C(=O)Nc2nnc(OC)s2)c1 [Example 401, N-(5-methoxy-1,3,4-thiadiazol-2-yl)-6-methyl-4-[3-(methylsulfamoyl)phenyl]pyridine-3-carboxamide]
1000 to 10000	COc1nnc(NC(=O)c2cnc(C)cc2-c2cnc3ccccc3c2)s1 [Example 394, N-(5-methoxy-1,3,4-thiadiazol-2-yl)-6-methyl-4-(quinolin-3-yl)pyridine-3-carboxamide]

Further lines, the compound ahead of its results:

Structure (SMILES)	IC50 [nM]
COc1cnc(Cl)cc1-c1cc(C)ncc1C(=O)Nc1nnc(O[C@H]2CO[C@H]3[C@@H]2OC[C@H]3O)s1 [Example 237, 2′-chloro-N-(5-(((3S,3aR,6R,6aR)-6-hydroxyhexahydrofuro[3,2-b]furan-3-yl)oxy)-1,3,4-thiadiazol-2-yl)-5′-methoxy-6-methyl-[4,4′-bipyridine]-3-carboxamide]	≤ 200
COc1cnc(C)cc1-c1cc(C)ncc1C(=O)Nc1nnc(OC(C)COCC(F)(F)F)s1 (centres unmarked) [Example 241, 5′-methoxy-2′,6-dimethyl-N-(5-((1-(2,2,2-trifluoroethoxy)propan-2-yl)oxy)-1,3,4-thiadiazol-2-yl)-[4,4′-bipyridine]-3-carboxamide]	≤ 200
COc1cnc(Cl)cc1-c1cc(C)ncc1C(=O)Nc1nnc(O[C@H]2C[C@H]3C[C@@H]2C[C@@H]3O)s1 (single isomer, unassigned) [Example 269]	≤ 200
COc1cnc(C)c(F)c1-c1cc(C)ncc1C(=O)Nc1nnc(O[C@H]2CCC[C@H](O)C2)s1 (single isomer, unassigned) [Example 256]	≤ 200
COc1nnc(NC(=O)c2cc(OC(C)C)ncc2-c2cc(Cl)ncc2OC)s1 [Example 273, 2′-chloro-6-isopropoxy-5′-methoxy-N-(5-methoxy-1,3,4-thiadiazol-2-yl)-[3,4′-bipyridine]-4-carboxamide]	200 to 500
COc1nnc(NC(=O)c2ccc(C#N)cc2-c2cc(Cl)ncc2OC)s1 [Example 248, 2-(2-chloro-5-methoxypyridin-4-yl)-4-cyano-N-(5-methoxy-1,3,4-thiadiazol-2-yl)benzamide]	≤ 200
COc1cc(C(=O)Nc2nnc(OC)s2)c(-c2cc(Cl)ncc2OC)cn1 [Example 242, 2′-chloro-5′,6-dimethoxy-N-(5-methoxy-1,3,4-thiadiazol-2-yl)-[3,4′-bipyridine]-4-carboxamide]	≤ 200

Same assay, conditions: Table 4; Pol theta (1-899) 5 nM, ATP, dT50 ssDNA

IC50 [nM]	Structure (SMILES)
≤ 200	COc1cnc(Cl)cc1-c1cc(C)ncc1C(=O)Nc1nnc(O[C@@H]2CCOC2)s1 [Example 23, (R)-2′-chloro-5′-methoxy-6-methyl-N-(5-((tetrahydrofuran-3-yl)oxy)-1,3,4-thiadiazol-2-yl)-(4,4′-bipyridine)-3-carboxamide]
≤ 200	COc1cnc(Cl)cc1-c1cc(C)ncc1C(=O)Nc1nnc(OCC(C)(C)C#N)s1 [Example 10, 2′-chloro-N-(5-(2-cyano-2-methylpropoxy)-1,3,4-thiadiazol-2-yl)-5′-methoxy-6-methyl-(4,4′-bipyridine)-3-carboxamide]

Same assay, conditions: Table 5; Pol theta (1-899) 5 nM, ATP, dT50 ssDNA

IC50 [nM]	Structure (SMILES)
≤ 200	COc1cnc(Cl)c(F)c1-c1cc(C)ncc1C(=O)Nc1nnc(O[C@H]2CC[C@H](O)CC2)s1 [Example 211, 2′-chloro-3′-fluoro-N-(5-(((1r,4r)-4-hydroxycyclohexyl)oxy)-1,3,4-thiadiazol-2-yl)-5′-methoxy-6-methyl-(4,4′-bipyridine)-3-carboxamide]
≤ 200	COc1cnc(Cl)c(F)c1-c1cc(C)ncc1C(=O)Nc1nnc(O[C@H]2CCO[C@H]2C)s1 (single isomer, unassigned) [Example 164]
≤ 200	COc1cnc(Cl)cc1-c1cc(COC2CC2)ncc1C(=O)Nc1nnc(O[C@@H]2CCOC2)s1 [Example 214, (R)-2′-chloro-6-(cyclopropoxymethyl)-5′-methoxy-N-(5-((tetrahydrofuran-3-yl)oxy)-1,3,4-thiadiazol-2-yl)-(4,4′-bipyridine)-3-carboxamide]
≤ 200	COc1cnc(Cl)cc1-c1cc(C)ncc1C(=O)Nc1nnc(OC2CCC3(CCCO3)CC2)s1 (single isomer, unassigned) [Example 173, N-(5-(((5s,8r)-1-oxaspiro(4.5)decan-8-yl)oxy)-1,3,4-thiadiazol-2-yl)-2′-chloro-5′-methoxy-6-methyl-(4,4′-bipyridine)-3-carboxamide]
≤ 200	COc1cnc(Cl)cc1-c1cc(C)ncc1C(=O)Nc1nnc(O[C@H]2CC[C@@H]([C@@H](C)O)CC2)s1 (single isomer, unassigned) [Example 212]
≤ 200	Cc1cc(-c2cc(Br)ncc2OC(F)F)c(C(=O)Nc2nnc(O[C@H]3CC[C@H](O)CC3)s2)cn1 [Example 205, 2′-bromo-5′-(difluoromethoxy)-N-(5-(((1r,4r)-4-hydroxycyclohexyl)oxy)-1,3,4-thiadiazol-2-yl)-6-methyl-(4,4′-bipyridine)-3-carboxamide]
≤ 200	COc1cnc(Cl)cc1-c1cc(C)ncc1C(=O)Nc1nnc(O[C@H]2CC[C@@](C)(O)CC2)s1 (single isomer, unassigned) [Example 141, 2′-chloro-N-(5-(((1s,4s)-4-hydroxy-4-methylcyclohexyl)oxy)-1,3,4-thiadiazol-2-yl)-5′-methoxy-6-methyl-(4,4′-bipyridine)-3-carboxamide]
